Like-named read-outs stand apart in the source and are kept apart here. Bridge positions count the residues as written; N and C are the ends. Square brackets hold non-standard residues; d marks the D form. Peptide text beside a SMILES is read from it. hCys = N[C@@H](CCS)C(=O)O
How the values were obtained:
[1] = target: T1, hNPR-C (Homo sapiens, UniProt P17342); experiment: Binding affinity for clearance receptor hNPR-C
T1 sequence (P17342 27-541): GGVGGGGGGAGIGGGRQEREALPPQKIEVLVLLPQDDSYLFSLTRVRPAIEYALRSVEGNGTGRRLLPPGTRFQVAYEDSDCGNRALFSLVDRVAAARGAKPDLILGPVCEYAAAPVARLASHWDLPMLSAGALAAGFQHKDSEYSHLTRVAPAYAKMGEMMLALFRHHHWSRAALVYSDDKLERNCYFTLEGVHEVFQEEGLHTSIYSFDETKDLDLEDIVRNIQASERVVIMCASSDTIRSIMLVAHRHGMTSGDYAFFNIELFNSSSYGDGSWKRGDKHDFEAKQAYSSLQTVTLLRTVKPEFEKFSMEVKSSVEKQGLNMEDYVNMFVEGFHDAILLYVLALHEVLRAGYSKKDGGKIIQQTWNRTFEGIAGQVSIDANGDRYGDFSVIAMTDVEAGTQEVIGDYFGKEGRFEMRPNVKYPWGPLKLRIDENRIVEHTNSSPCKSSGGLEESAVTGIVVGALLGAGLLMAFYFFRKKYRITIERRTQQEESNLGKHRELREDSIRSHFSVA
Source text: For assay systems to measure binding of hANF and the compounds of this invention to hNPR-C see: Schank, D. B., et al., Biochem. Biophys. Res. Comm. 127:433-442 (1985); Scarborough, R. M., J. Biol. Chem. 261:12960-12964 and WO 90/01940.

[2] = target: T2, hNPR-A (Homo sapiens, UniProt P16066); experiment: Binding affinity for hNPR-A (competitive displacement of I^125 labeled wild-type ANF); conditions: Table I; read-out: Binding Affinity IC50 (pM) hNPR-A
T2 sequence (P16066 33-1061): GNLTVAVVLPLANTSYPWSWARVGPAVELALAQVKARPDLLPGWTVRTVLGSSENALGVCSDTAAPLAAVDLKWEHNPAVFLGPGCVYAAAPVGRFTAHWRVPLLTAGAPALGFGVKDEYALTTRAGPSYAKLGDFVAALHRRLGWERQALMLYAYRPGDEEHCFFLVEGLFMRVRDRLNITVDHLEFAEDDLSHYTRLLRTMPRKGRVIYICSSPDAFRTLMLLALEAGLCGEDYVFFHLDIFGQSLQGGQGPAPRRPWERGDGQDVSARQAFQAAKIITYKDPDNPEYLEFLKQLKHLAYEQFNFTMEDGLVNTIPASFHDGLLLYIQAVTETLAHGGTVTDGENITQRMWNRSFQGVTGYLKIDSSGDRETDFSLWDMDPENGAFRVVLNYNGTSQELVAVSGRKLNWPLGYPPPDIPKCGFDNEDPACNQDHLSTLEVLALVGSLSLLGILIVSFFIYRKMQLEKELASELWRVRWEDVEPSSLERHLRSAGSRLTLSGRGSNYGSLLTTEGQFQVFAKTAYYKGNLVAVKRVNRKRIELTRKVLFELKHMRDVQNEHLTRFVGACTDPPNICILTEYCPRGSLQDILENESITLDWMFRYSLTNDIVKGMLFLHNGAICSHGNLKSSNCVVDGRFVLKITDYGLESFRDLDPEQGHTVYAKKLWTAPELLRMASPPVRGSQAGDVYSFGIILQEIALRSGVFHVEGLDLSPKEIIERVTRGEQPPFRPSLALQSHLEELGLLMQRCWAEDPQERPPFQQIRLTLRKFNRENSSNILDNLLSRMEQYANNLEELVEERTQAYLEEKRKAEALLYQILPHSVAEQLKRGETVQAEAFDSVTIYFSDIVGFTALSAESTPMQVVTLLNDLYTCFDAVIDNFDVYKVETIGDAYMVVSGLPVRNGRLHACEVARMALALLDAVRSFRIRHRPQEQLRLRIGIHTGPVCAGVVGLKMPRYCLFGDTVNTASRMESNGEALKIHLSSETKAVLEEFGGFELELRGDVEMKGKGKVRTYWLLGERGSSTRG

[3] = Table I, read-out: Binding Affinity IC50 (pM) hNPR-C

Row | SMILES | IC50 [1, 3] [pM] | IC50 [2] [pM] | IC50 [1] [pM]
1 | CC[C@H](C)[C@@H]1NC(=O)[C@H](CCCNC(=N)N)NC(=O)[C@H](CC(=O)O)NC(=O)[C@H]([C@@H](C)CC)NC(=O)[C@H](CCCNC(=N)N)NC(=O)CNC(=O)CNC(=O)[C@H](Cc2ccccc2)NC(=O)[C@@H](NC(=O)[C@H](CO)NC(=O)[C@H](CO)NC(=O)[C@H](CCCNC(=N)N)NC(=O)[C@H](CCCNC(=N)N)NC(=O)[C@H](CC(C)C)NC(=O)[C@@H](N)CO)CSSC[C@@H](C(=O)N[C@@H](CC(N)=O)C(=O)N[C@@H](CO)C(=O)N[C@@H](Cc2ccccc2)C(=O)N[C@@H](CCCNC(=N)N)C(=O)N[C@@H](Cc2ccc(O)cc2)C(=O)O)NC(=O)CNC(=O)[C@H](CC(C)C)NC(=O)CNC(=O)[C@H](CO)NC(=O)[C@H](CCC(N)=O)NC(=O)[C@H](C)NC(=O)[C@H](CCCNC(=N)N)NC1=O [ANF24] | 5640 | – | –
2 | CC[C@H](C)[C@@H]1NC(=O)[C@H](CO)NC(=O)[C@H](CC(=O)O)NC(=O)[C@H]([C@@H](C)CC)NC(=O)[C@H](CCCNC(=N)N)NC(=O)CNC(=O)CNC(=O)[C@H](Cc2ccccc2)NC(=O)[C@@H](NC(=O)[C@H](CO)NC(=O)[C@H](CO)NC(=O)[C@H](CCCNC(=N)N)NC(=O)[C@H](CCCNC(=N)N)NC(=O)[C@H](CC(C)C)NC(=O)[C@@H](N)CO)CSSC[C@@H](C(=O)N[C@@H](CC(N)=O)C(=O)N[C@@H](CO)C(=O)N[C@@H](Cc2ccccc2)C(=O)N[C@@H](CCCNC(=N)N)C(=O)N[C@@H](Cc2ccc(O)cc2)C(=O)O)NC(=O)CNC(=O)[C@H](CC(C)C)NC(=O)CNC(=O)[C@H](CO)NC(=O)[C@H](CCC(N)=O)NC(=O)[C@H](C)NC(=O)[C@H](CCCNC(=N)N)NC1=O [ANF25] (H-SLRRSSCFGGRIDSIRAQSGLGCNSFRY-OH; disulfide 7-23) | 3310 | 56 | –
3 | CC[C@H](C)[C@@H]1NC(=O)[C@H](CCCNC(=N)N)NC(=O)[C@H](CC(=O)O)NC(=O)[C@H]([C@@H](C)CC)NC(=O)[C@H](CO)NC(=O)CNC(=O)[C@H]([C@@H](C)O)NC(=O)[C@H](Cc2ccccc2)NC(=O)[C@@H](NC(=O)[C@H](CO)NC(=O)[C@H](CO)NC(=O)[C@H](CCCNC(=N)N)NC(=O)[C@H](CCCNC(=N)N)NC(=O)[C@H](CC(C)C)NC(=O)[C@@H](N)CO)CSSC[C@@H](C(=O)N[C@@H](CC(N)=O)C(=O)N[C@@H](CO)C(=O)N[C@@H](Cc2ccccc2)C(=O)N[C@@H](CCCNC(=N)N)C(=O)N[C@@H](Cc2ccc(O)cc2)C(=O)O)NC(=O)CNC(=O)[C@H](CC(C)C)NC(=O)CNC(=O)[C@H](CO)NC(=O)[C@H](CCC(N)=O)NC(=O)[C@H](C)NC(=O)[C@H](CCCNC(=N)N)NC1=O [ANF27] | 1e+06 | – | –
4 | CC[C@H](C)[C@@H]1NC(=O)[C@H](CCCNC(=N)N)NC(=O)[C@H](CC(=O)O)NC(=O)[C@H]([C@@H](C)CC)NC(=O)[C@H](CO)NC(=O)CNC(=O)[C@H]([C@@H](C)O)NC(=O)[C@H](Cc2ccccc2)NC(=O)[C@@H](NC(=O)[C@H](CO)NC(=O)[C@H](CO)NC(=O)[C@H](CCCNC(=N)N)NC(=O)[C@H](CCCNC(=N)N)NC(=O)[C@H](CC(C)C)NC(=O)[C@@H](N)CO)CSSC[C@@H](C(=O)N[C@@H](CC(N)=O)C(=O)N[C@@H](CO)C(=O)N[C@@H](Cc2ccccc2)C(=O)N[C@@H](CCCNC(=N)N)C(=O)N[C@@H](Cc2ccc(O)cc2)C(=O)O)NC(=O)CNC(=O)[C@H](CC(C)C)NC(=O)CNC(=O)[C@H](CO)NC(=O)[C@@H]2CCCN2C(=O)[C@H](C)NC(=O)[C@H](CCCNC(=N)N)NC1=O [ANF31] (H-SLRRSSCFTGSIDRIRAPSGLGCNSFRY-OH; disulfide 7-23) | 3.21e+06 | 52 | –
5 | CC[C@H](C)[C@@H]1NC(=O)[C@H](CCCNC(=N)N)NC(=O)[C@H](CC(=O)O)NC(=O)[C@H](CCSC)NC(=O)[C@H](CO)NC(=O)CNC(=O)[C@H]([C@@H](C)O)NC(=O)[C@H](Cc2ccccc2)NC(=O)[C@@H](NC(=O)[C@H](CO)NC(=O)[C@H](CO)NC(=O)[C@H](CCCNC(=N)N)NC(=O)[C@H](CCCNC(=N)N)NC(=O)[C@H](CC(C)C)NC(=O)[C@@H](N)CO)CSSC[C@@H](C(=O)N[C@@H](CC(N)=O)C(=O)N[C@@H](CO)C(=O)N[C@@H](Cc2ccccc2)C(=O)N[C@@H](CCCNC(=N)N)C(=O)N[C@@H](Cc2ccc(O)cc2)C(=O)O)NC(=O)CNC(=O)[C@H](CC(C)C)NC(=O)CNC(=O)[C@H](CO)NC(=O)[C@H](CCC(N)=O)NC(=O)[C@H](C)NC(=O)CNC1=O [ANF50] (H-SLRRSSCFTGSMDRIGAQSGLGCNSFRY-OH; disulfide 7-23) | 251000 | 570 | –
6 | CC[C@H](C)[C@@H]1NC(=O)[C@H](CCCNC(=N)N)NC(=O)[C@H](CC(=O)O)NC(=O)[C@H](CCSC)NC(=O)[C@@H]2CCCN2C(=O)[C@H](CCCNC(=N)N)NC(=O)[C@H](CCC(=O)O)NC(=O)[C@H](Cc2ccccc2)NC(=O)[C@@H](NC(=O)[C@H](CO)NC(=O)[C@H](CO)NC(=O)[C@H](CCCNC(=N)N)NC(=O)[C@H](CCCNC(=N)N)NC(=O)[C@H](CC(C)C)NC(=O)[C@@H](N)CO)CSSC[C@@H](C(=O)N[C@@H](CC(N)=O)C(=O)N[C@@H](CO)C(=O)N[C@@H](Cc2ccccc2)C(=O)N[C@@H](CCCNC(=N)N)C(=O)N[C@@H](Cc2ccc(O)cc2)C(=O)O)NC(=O)CNC(=O)[C@H](CC(C)C)NC(=O)CNC(=O)[C@H](CO)NC(=O)[C@H](CCC(N)=O)NC(=O)[C@H](C)NC(=O)CNC1=O [ANF51] (H-SLRRSSCFERPMDRIGAQSGLGCNSFRY-OH; disulfide 7-23) | 32200 | 4550 | –
7 | CC[C@H](C)[C@@H]1NC(=O)[C@H](CO)NC(=O)[C@H](CC(=O)O)NC(=O)[C@H](CC(C)C)NC(=O)[C@H](CO)NC(=O)CNC(=O)[C@H]([C@@H](C)O)NC(=O)[C@H](Cc2ccccc2)NC(=O)[C@@H](NC(=O)[C@H](CO)NC(=O)[C@H](CO)NC(=O)[C@H](CCCNC(=N)N)NC(=O)[C@H](CC(=O)O)NC(=O)[C@H](CC(C)C)NC(=O)[C@@H](N)CO)CSSC[C@@H]2NC(=O)CNC(=O)[C@H](CC(C)C)NC(=O)CNC(=O)[C@H](CO)NC(=O)[C@H](CCSSCC[C@@H](C(=O)O)NC(=O)[C@H](CCCNC(=N)N)NC(=O)[C@H](Cc3ccccc3)NC(=O)[C@H](CO)NC(=O)[C@H](CC(N)=O)NC2=O)NC(=O)[C@H](C)NC(=O)[C@H](CCCNC(=N)N)NC1=O [ANF70] (H-SLDRSSCFTGSLDSIRA[hCys]SGLGCNSFR[hCys]-OH; disulfide 7-23, 18-28) | – | 3300 | –
8 | CC[C@H](C)[C@@H]1NC(=O)[C@H](CCCNC(=N)N)NC(=O)[C@H](CC(=O)O)NC(=O)[C@H]([C@@H](C)CC)NC(=O)[C@H](CO)NC(=O)CNC(=O)[C@@H](C)NC(=O)[C@H](Cc2ccccc2)NC(=O)[C@@H](NC(=O)[C@H](CO)NC(=O)[C@H](CO)NC(=O)[C@H](CCCNC(=N)N)NC(=O)[C@H](CCCNC(=N)N)NC(=O)[C@H](CC(C)C)NC(=O)[C@@H](N)CO)CSSC[C@@H](C(=O)N[C@@H](CC(N)=O)C(=O)N[C@@H](CO)C(=O)N[C@@H](Cc2ccccc2)C(=O)N[C@@H](CCCNC(=N)N)C(=O)N[C@@H](Cc2ccc(O)cc2)C(=O)O)NC(=O)CNC(=O)[C@H](CC(C)C)NC(=O)CNC(=O)[C@H](CO)NC(=O)[C@H](CCC(N)=O)NC(=O)[C@H](C)NC(=O)[C@H](CCCNC(=N)N)NC1=O [ANF78] | – | – | 8640

From patent publication US5665704A, “Receptor specific atrial natriuretic peptides” (Genentech, Inc., priority 1995, dated 1997)
